Experimental data from US20070169214A1, “Thiol methyltransferase-based selection” (priority 2004, published 2007).

Assays:
E. coli M15 cells = assay: Bacterial growth (OD600) in the presence of toxin; format: cell-based, Escherichia coli; settings: for growth of non-transgenic bacteria: E. coli M15 with empty vector pQE30, 4 h at 37° C.; for ΔOD600 (growth of transgenic bacteria): E. coli M15 with pQETMT1, 4 h at 37° C.
Protocol: E. coli M15 cells transformed with the empty vector pQE30 (referred to as non-transgenic bacteria) or pQETMT1 (hereafter referred to as transgenic bacteria) were grown as 15 ml starter cultures in LB medium supplemented with 100 μg/ml ampicillin and […] kanamycin at 37° C. for 16 h. 5 ml of each culture was then transferred to 100 ml of fresh LB medium containing the same concentrations of both antibiotics and cultures grown to an OD600 of 0.6. […] In the culture tubes, expression of the recombinant TMT protein was induced by adding […] (IPTG) to a final concentration of 1 mM. All the culture tubes were incubated at 37° C. for another 4 h. Bacterial growth at different toxin concentrations was measured by optical density (OD600) and the difference in OD600 (ΔOD600) was calculated.

potato roots = assay: Potato root growth on MS with toxin (WinRhizo root length); parameters: species or system Solanum tuberosum cv Russet Burbank; settings: increasing toxin concentration, 10 days, transgenic and non-transgenic roots
Excerpt: pBluescript plasmid harboring the full-length TMT1clone (SEQ ID NO:1) was linearized with BamHI and KpnI and cloned in a sense orientation into the binary pBin19 double enhancer vector between the 35S promoter of CaMV and the Nos terminator. Agrobacterium rhizogenes wild-type strain A4 was then transformed either with the pBin/TMT vector or pBin vector alone. Freshly cut Solanum tuberosum cv Russet Burbank petioles were decontaminated by soaking in diluted commercial bleach (10%) containing 0.01% Tween-20™ for 10 min, followed by three 10 min washes in sterile water. The petioles were then cut into 4 cm segments and cultured apical side down in MS medium containing 0.4% phytagel™. The upper parts of the petioles were infected with freshly streaked A. rhizogenes A4 carrying the pBin19 vector alone (non-transgenic roots) or with the pBin vector with the TMT insert (transgenic roots). Roots started appearing after about 10 days. […]
Every 2 weeks, the carbenicillin concentration was halved until no carbenicillin was present in the medium. All roots were then screened for TMT activity using an in vivo technique where KI in solution (100 mM) was added to the roots and emission of CH3I was detected using gas chromatography. […] The roots were placed in MS containing 0.2% phytagel and allowed to grow for 10 days after which the growth was measured using WinRhizo™ software.

HEK 293 cells = assay: Growth of transfected HEK 293 cells monitored by GFP fluorescence; format: cell-based; settings: 0-200 mM toxin, 24 h
Protocol: A TMT insert was generated by linearizing pBluescript vector harboring the full-length clone (described in Example 2) with SpeI and ApaI and inserted into the pTracer™-SV40 mammalian expression plasmid. This vector contains a cycle-3-GFP, an improved Green Fluorescent Protein gene fused to Zeocin™ resistance gene for selection in mammalian cells. Transfection of HEK 293 cells was carried out in 24 well plates using Fugene 6™ Transfection reagent (Roche Molecular Biochemicals). A ratio of DNA to Fugene of 1:6 and 200 or 400 ng of DNA were used. Each well was seeded with 2×10^5 cells grown in a monolayer for 16 h in […] DMEM containing 10% serum. Transfection was performed on 90% confluent cells. Prior to transfection, the medium containing serum was removed and replaced with 150 μl of serum-free medium in each well. A DNA/Fugene 6 mixture was incubated for 15 min at room temperature and 100 μl of this mixture was added drop-wise to each well while cells were gently rocked. After a 3 hour incubation, another 250 μl DMEM containing 2× serum was added to each well and cells were further incubated for 48 h. […] These cells were allowed to grow for another 24 h. Growth was monitored by fluorescent microscopy to detect the presence of GFP. […] The emission of CH3I was then monitored by gas chromatography.

tobacco plants = assay: In vivo TMT activity of tobacco plants grown on SCN; settings: transgenic tobacco plant
Protocol: (§1) In vivo assay: This assay was used in the studies described herein. In vivo TMT activity is measured in 10 leaf disks placed on a Whatman filter paper (4.25 cm) in a 50-ml Erlenmeyer flask, and incubated with 2 ml of a 100 mM KI solution (Saini et al., [1995] Plant, Cell and Environment, 18:1027-1033). The flask is sealed with a rubber stopper and CH3I formed in the headspace is quantified after 2 h by gas chromatography. Assays for alternative substrates or inhibitors of the enzyme contained 20 mol m^−3 KI (the known substrate) and a range of concentrations of the compound to be tested. In the assay for HS^− methylation, KI in the above assay is replaced with 20 mM (NH4)2S.
With reference to FIG. 34, the effect of SCN on in vivo TMT activity of transgenic/non-transgenic tobacco plants was analysed. […] As the concentration of SCN increased to 5 mM, the transgenic plant was able to methylate the SCN but beyond 5 mM, the activity decreased as higher SCN levels appear to confer some toxicity to the plant.

A. thaliana plants = assay: In vivo TMT activity in 3 Arabidopsis phenotypes grown on SCN
Protocol: as §1
With reference to FIG. 36, the effect of SCN on TMT activity in 3 Arabidopsis phenotypes was analysed. […] As the concentration of SCN increased the TT and Tt plants were less and less able to methylate the SCN. TT plants could methylate the SCN up to 10 mM while the Tt had no activity after 2.5 mM, as it appears that higher levels of SCN may have some toxicity to the heterozygote plant.

Structure (SMILES)	growth of non-transgenic bacteria (E. coli M15 cells; 200 mM NaSCN)	ΔOD600 (growth of transgenic bacteria) (E. coli M15 cells; 200 mM NaSCN)	root growth (root length) (potato roots)	GFP fluorescence (cell viability), transgenic vs non-transgenic cells (HEK 293 cells)	SCN concentration beyond which in vivo TMT activity decreased (tobacco plants)	SCN concentration up to which plants could methylate SCN (TMT activity) (A. thaliana plants; TT (wild type) plants)	SCN concentration after which there was no TMT activity (A. thaliana plants; Tt (heterozygous) plants)	growth of non-transgenic bacteria (E. coli M15 cells; 250 mM KI)	ΔOD600 (growth of transgenic bacteria) (E. coli M15 cells; 250 mM KI)
N#C[S-].[Na+] [NaSCN]	halted non-transgenic bacterial growth	0.377	growth of both transgenic and non-transgenic roots was affected	more fluorescence in the transgenic than in the non-transgenic cells	> 5 mM	up to 10 mM	> 2.5 mM		
I [KI]				more fluorescence in the transgenic than in the non-transgenic cells				growth of the non-transgenic bacteria was halted	0.547
